Reference: BigSolDB 2.1

O=Cc1cc(Br)c(O)c(Br)c1
solubility (mole fraction)
Conditions | 278.15 K | 283.15 K | 288.15 K | 293.15 K | 298.15 K | 303.15 K | 308.15 K | 313.15 K | 318.15 K | 323.15 K
in 1,4-dioxane | – | – | 0.0128 | 0.0143 | 0.0161 | 0.0183 | 0.0208 | 0.0236 | 0.0266 | 0.03
in DMF | 0.00805 | 0.00912 | 0.0104 | 0.012 | 0.0137 | 0.0157 | 0.0178 | 0.0201 | 0.0225 | 0.0251
in DMSO | – | – | – | 0.00895 | 0.0101 | 0.0115 | 0.0132 | 0.0152 | 0.0174 | 0.0203
in acetonitrile | 0.002 | 0.00233 | 0.00277 | 0.00328 | 0.00383 | 0.00452 | 0.00531 | 0.00621 | 0.00734 | 0.0086
in cyclohexane | – | 0.000245 | 0.000317 | 0.000408 | 0.000513 | 0.000637 | 0.000791 | 0.000965 | 0.00116 | 0.00139
in ethanol | 0.00281 | 0.00314 | 0.00358 | 0.00413 | 0.00477 | 0.00555 | 0.00646 | 0.00742 | 0.00851 | 0.00974
in ethyl acetate | 0.0055 | 0.00634 | 0.00729 | 0.00845 | 0.0098 | 0.0114 | 0.0131 | 0.015 | 0.0171 | 0.0194
in ethylene glycol | 0.00234 | 0.00274 | 0.00327 | 0.00397 | 0.00476 | 0.00571 | 0.00675 | 0.00796 | 0.00923 | 0.0107
in isobutanol | 0.00368 | 0.00422 | 0.0049 | 0.00569 | 0.00659 | 0.00762 | 0.00878 | 0.01 | 0.0115 | 0.0132
in isopropanol | 0.003 | 0.00343 | 0.00399 | 0.00467 | 0.00542 | 0.00629 | 0.00731 | 0.00841 | 0.00966 | 0.011
in methanol | 0.00195 | 0.0022 | 0.00252 | 0.00294 | 0.00341 | 0.00395 | 0.00457 | 0.00526 | 0.00604 | 0.00689
in n-butanol | 0.00412 | 0.00466 | 0.00539 | 0.00624 | 0.00726 | 0.00846 | 0.0098 | 0.0112 | 0.0128 | 0.0147
in n-octanol | 0.00788 | 0.00908 | 0.0105 | 0.0121 | 0.0139 | 0.016 | 0.0184 | 0.021 | 0.024 | 0.0275
in n-pentanol | 0.00662 | 0.00744 | 0.00859 | 0.0101 | 0.0116 | 0.0135 | 0.0155 | 0.0176 | 0.02 | 0.0226
in n-propanol | 0.00339 | 0.00379 | 0.00434 | 0.00499 | 0.00579 | 0.0067 | 0.00779 | 0.00897 | 0.0103 | 0.0118
in water | 4.91e-05 | 6.34e-05 | 8.16e-05 | 0.000103 | 0.000131 | 0.000167 | 0.000213 | 0.000267 | 0.000332 | 0.000406
